Experimental data taken from US20240358734A1, “DISCOVERY OF NOVEL TRPV1 CHANNEL BLOCKERS BY HIGH-THROUGHPUT SCREENING OF MARINE NATURAL PRODUCTS” (The Hong Kong University of Science and Technology, priority 2023, published 2024).
Entries after “also recorded” stand apart in the source; their conditions may differ.

How the values were obtained:
human TRPV1 = target: T1, human TRPV1 (Homo sapiens, UniProt Q8NER1); experiment: High-throughput FM4-64 dye-uptake assay in HEK293 cells transfected with hTRPV1-pIRES-eGFP; assay type: cell-based; conditions: for inhibitory effect on TRPV1 (relative n2/n1 ratio compared to vehicle control): screening, 5 μM FM4-64 dye and 100 μg/ml test compounds for 3 minutes, vs DMSO; for IC50: 1 μM capsaicin, 5 μM FM4-64, 3-minute incubation, cell-based system; for mean n2/n1 ratio: HEK293 cells transfected with human TRPV1, 96-well plate, groups incubated with drug, compared to capsaicin alone
T1 construct: expressed in transfected cells; host or cells: HEK293 (HEK293T) cells
Description: To screen potential modulators of TRPV1, a high-throughput screening system based on FM4-64 dye uptake was established using HEK293 cells transfected with hTRPV1-pIRES-eGFP and cultured in 96-well plates. The cells are incubation with 5 μM FM4-64 dye and 100 μg/ml test compounds for 3 minutes, washed, imaged using Zeiss Celldiscoverer 7, and analyzed using Image J (FIG. 2A). The number of GFP positive cells which is an indicator of the number of TRPV1 expressed cells, is calculated as n1 and the number of cells which are both GFP positive and dye uptake positive is calculated as n2 (FIG. 2B). The ratio (n2/n1) is a functional indicator of TRPV1 channel activity.
The performance of cC and cF with capsaicin and capsazepine, with HEK293 cells transfected with human TRPV1 and cultured on a 96-well plate are compared by the n2/n1 ratio of the groups incubated with cC and cF to those incubated with capsaicin alone and capsazepine (FIG. 3B).
The assay involves mixing 1 μM of capsaicin with varying concentrations of cC and 5 μM of FM4-64, and the mixture is added to each well for a 3-minute incubation.
Transfected HEK293 cells in a 96-well plate were divided into 8 groups, each containing 12 wells. 10-11 wells of each group were set as experimental groups in which cells were incubated with compound mixtures. 1-2 wells of each group were set as control groups in which cells were incubated with control solution A or B. One group was operated simultaneously to reduce the difference between wells. Cells in DMEM were washed with CaCl2-HBSS buffer once to remove the remnant medium. Subsequently, cells were incubated with the compound mixture or control solution for 2-3 min at RT. After FM4-64 incubation, cells were washed with CaCl2-HBSS buffer thrice to remove FM4-64 residuals. A group of cells was subjected to Zeiss Celldiscoverer 7 for fluorescent imaging.
To separate GFP and FM4-64 fluorescent dye, we used an LED light source at 470 nm to excite the GFP channel and light at 567 nm to excite the FM4-64 channel. 5× objective (Plan Apo, dry, autocorrect, NA 0.35), Orca camera (Orca Flash 4.0 v3), CO2 Module S1 incubation system, and Zenblue software were used for image recording. Each image comprises a GFP channel, FM4-64 channel, and bright field channel. And 4 non-overlapping images were taken for each well using the Tile function at Zenblue.
All images were analysed with ImageJ software. The same threshold would be applied to all the images in the same experiment group to select GFP-positive and dye uptake-positive cells. Cell number was calculated by the “Analyze particle” function in ImageJ. GFP-positive and dye uptake-positive cells were selected using the “AND” function in the image calculator. The number of GFP-positive cells (TRPV1 expressed cells) would be calculated as N1, and the number of cells that are both GFP positive and dye uptake positive would be calculated as N2. The ratio of […] represents the percentage of TRPV1 expressed cells that uptake FM4-64 fluorescent dye and would be used to analyse TRPV1's function.

[1] = test system: capsaicin-/TRPV1-induced pain sensation; experiment: Capsaicin-induced pain-sensation assay (paw-licking) in mice; assay type: in vivo, mice (C57B/6J); conditions: for mean licking time: drug mixed with capsaicin injected into right hind paw, 5 minutes observation
Description: The total time spent paw-licking, a typical nociception behaviour in mice, was recorded as an indicator of TRPV1 activation and compared with a positive control group injected with capsaicin alone. The potency of the injected drugs is related to the reduction of licking time.
The mice used were 4-6 weeks old C57B/6J provided by APCF in HKUST. All animal procedures were approved by the University Committee on Research Practices of the Hong Kong University of Science and Technology (Ethics protocol number: 2016074).
Capsaicin-induced pain-sensation assays in mice were performed where 10 μL of capsaicin (300 μM) or solvent control was injected into the top of the hind paw by using a fine (30-G) needle; capsaicin was dissolved in 0.3% ethanol and 3% (v/v) dimethyl sulfoxide (DMSO). The mice were wrapped gently in the investigator's hand and maintained on their back, with their snout pointing toward the small finger of the investigator; in this position, the mice remained unagitated during the injection. Mouse behavior was recorded using a digital camera (GoPro5).
The observation cage was made with the transparent large cage liner from APCF with bedding and food at the bottom. Mice were placed in the observation cage for 10 minutes at least 1 hour before the experiment was conducted to reduce the stress bought on by an unfamiliar environment. During the experiment, mice were captured by the left hand using the index finger and thumb to hold their neck. Then gradually pick up the mice and use the little finger to anchor its tail, such that its right hind paw will step on the ring finger or middle finger. Drugs were prepared in a 1.5 mL test tube. For the control group, 1 mM stock Capsaicin in DMSO is diluted to 100 μM using PBS. For the testing group, drugs originally dissolved in DMSO were diluted to the desired concentration in addition to capsaicin.
The injection was performed by shaking and spinning the drug-containing test tube for an even concentration of drug. A BD Ultra-fine 6 mm needle was used to suck out the 10 μL of drug from the needle. After removing excess air bubbles, 10 μL of the drug was injected into the captured mice's back of the right hind paw. The needle was removed slowly to inhibit blood and drug from leaking from the wound. After injection, mice were placed in the observation cage for 5 minutes to record the pain behavior. Video was filmed using a camera with the configuration of HD 30 fps. The environmental noise, light, and temperature are constant throughout the record. The mice's behavior was identified by experienced individuals who mapped pain behavior in seconds throughout the 5 minutes.

TRPV1 channel (hTRPV1) = target: T2, TRPV1 channel (hTRPV1) (Homo sapiens, UniProt Q8NER1); experiment: Excised inside-out patch-clamp of 3T3 cells transfected with hTRPV1-IRES-EGFP; assay type: cell-based; conditions: for inhibition of TRPV1 channels in patch-clamp macroscopic current: 10 nM capsaicin activation followed by 20 μM drug
T2 construct: expressed in transfected cells; host or cells: 3T3 cells
Source text: A cell-based high-throughput drug screening method identifies potential TRPV1 inhibitors using the FM4-64 dye-uptake assay though the assay cannot conclusively distinguish the specific mechanism of blockage as numerous factors, such as other channels, pinocytosis, and drug-induced membrane potential alteration via pore-forming, can contribute to changes in FM4-64 dye uptake. A high-resolution patch clamp assays using an excised inside-out recording configuration allows investigation of the potential inhibitory effect of cC and cF on TRPV1, where changes in the patch-clamp macroscopic current before and after drug application indicates drug effectiveness.
3T3 cells were recorded using excised inside-out voltage clamp. Patch electrodes with a resistance of 4 MΩ±1.1 MΩ were pulled on a glass pipette puller (DMZ Zeitz-Puller). 3T3 cells were first transferred to a patch container to minimize the use of drugs and transfected with hTRPV1-IRES-EGFP. Immediately before assay, the cell medium was changed to PBS as well as the pipette medium. The dish was connected to the ground electrode via the salt bridge. Glass pipette filled with PBS was inserted into the patch electrode. A positive pressure of around 40 mmHg was applied to the pipette and soaked into the cell medium. The offset was tuned to near 0 pA when the holding potential was 0 mV. Pipette was moved to the cell, showing green-fluorescent and barely attached to the cell membrane. Then, removing the positive pressure in the pipette and changing the holding potential to −80 mV, forming a tight seal between the cell membrane and the pipette. The seal resistance should be >=1GQ. The sealed membrane was excised to form a patch in an inside-out configuration. The recording started with a positive holding potential.
The patch was activated by 10 nM of capsaicin to activate TRPV1 channels fully. After full activation, 20 μM of drugs (cC) was applied to test for their ability of TRPV1 inhibition. […]
Traces were collected with the pClamp10 software suite, and the patch-clamp macroscopic current was recorded. […]

T2 sequence (Q8NER1 whole entry): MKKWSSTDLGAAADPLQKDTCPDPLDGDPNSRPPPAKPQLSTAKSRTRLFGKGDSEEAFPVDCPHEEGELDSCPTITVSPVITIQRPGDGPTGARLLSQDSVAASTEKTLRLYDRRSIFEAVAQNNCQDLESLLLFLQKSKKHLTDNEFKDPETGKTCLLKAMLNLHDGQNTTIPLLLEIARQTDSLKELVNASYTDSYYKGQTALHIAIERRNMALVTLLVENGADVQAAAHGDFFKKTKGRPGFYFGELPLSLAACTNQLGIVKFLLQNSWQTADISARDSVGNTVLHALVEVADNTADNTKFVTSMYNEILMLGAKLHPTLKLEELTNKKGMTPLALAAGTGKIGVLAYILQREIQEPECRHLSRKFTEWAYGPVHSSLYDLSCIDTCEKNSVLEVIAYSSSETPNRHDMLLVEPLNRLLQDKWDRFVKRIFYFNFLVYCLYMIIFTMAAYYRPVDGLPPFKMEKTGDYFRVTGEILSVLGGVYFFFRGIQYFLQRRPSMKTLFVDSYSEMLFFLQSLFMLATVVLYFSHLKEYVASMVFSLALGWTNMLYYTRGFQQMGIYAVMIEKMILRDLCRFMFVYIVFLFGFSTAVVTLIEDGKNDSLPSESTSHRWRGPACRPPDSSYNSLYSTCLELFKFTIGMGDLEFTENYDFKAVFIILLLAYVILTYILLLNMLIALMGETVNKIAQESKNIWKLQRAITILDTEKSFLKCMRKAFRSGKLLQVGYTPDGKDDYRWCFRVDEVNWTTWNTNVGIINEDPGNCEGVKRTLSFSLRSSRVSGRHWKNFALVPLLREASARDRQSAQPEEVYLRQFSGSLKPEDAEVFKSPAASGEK
T1 sequence (Q8NER1 whole entry): as above

Row | Molecule | inhibitory effect on TRPV1 (relative n2/n1 ratio compared to vehicle control) (human TRPV1) | mean licking time [1] | inhibition of TRPV1 channels in patch-clamp macroscopic current (TRPV1 channel (hTRPV1)) | IC50 (human TRPV1) | mean n2/n1 ratio (human TRPV1) | also measured
1 | COc1c2c(c(O)c3c(=O)c4cccc(O[C@@H]5OC(C(=O)O)=C[C@H](O)[C@H]5O)c4oc13)-c1c(cc(CC(C)=O)c(C(=O)O)c1O)CC2 [cB, chrexanthomycin B] | inhibitory effects on TRPV1 |  |  |  |  | 
2 | chrexanthomycin C [cC] | inhibitory effects on TRPV1; also recorded: lowest relative n2/n1 ratio | 19 s | effectively inhibit TRPV1 channels | 750 to 1000 nM | 0.0307 | efficacy in blocking capsaicin-induced pain sensation relative to capsazepine ([1]; mouse model, ANOVA with post hoc test): as effective as capsazepine; average relative macroscopic current after drug addition (TRPV1 channel (hTRPV1); fully capsaicin-activated state (10 nM capsaicin), 20 μM drug, inside-out patch): 0.285
3 | C[C@@]1(O)Cc2cc3c(c(O)c2C(=O)O1)-c1c(c(O)c(O)c2c(=O)c4cccc(O[C@@H]5OC(C(=O)O)=C[C@H](O)[C@H]5O)c4oc12)CC3 [cF, chrexanthomycin F] | inhibitory effects on TRPV1 |  | effectively inhibit TRPV1 channels | > 2000 nM | 0.068 | 
4 | COc1cc(CNC(=O)CCCC/C=C/C(C)C)ccc1O [capsaicin, reference compound] |  |  |  |  |  | mean licking time, capsaicin alone group ([1]; capsaicin alone injected into right hind paw (positive control)): over 50 seconds; mean n2/n1 ratio, capsaicin group (human TRPV1; capsaicin alone, HEK293 cells transfected with human TRPV1): 0.254
5 | CC(=O)Cc1cc2c(c(O)c1C(=O)O)-c1c(c(O)c3oc4c(O[C@@H]5OC(C(=O)O)=C[C@H](O)[C@H]5O)cccc4c(=O)c3c1O)CC2 [cA, chrexanthomycin A] | inhibitory effects on TRPV1 |  |  |  |  | 
6 | Oc1cc2c(cc1O)CN(C(=S)NCCc1ccc(Cl)cc1)CCC2 [capsazepine, reference compound] |  | 18 s |  |  | 0.0667 | 
